From ChEMBL document CHEMBL5500395 (J Med Chem, 2024)

Assay: Solubility of compound in PBS at pH 7.4 at 100 uM incubated for 120 mins by LC-MS/MS analysis
Assay type: physicochemical
Conditions: buffer, pH 7.4, 2 h

solubility, Soluble:
O=C(OC1COC1)[C@@H]1[C@H]2C[C@H]3c4[nH]c5ccccc5c4CCN3C[C@@H]2CC[C@@H]1O
CNCCOC(=O)[C@@H]1[C@H]2C[C@H]3c4[nH]c5ccccc5c4CCN3C[C@@H]2CC[C@@H]1O
O=C(OC[C@@H]1CCNC1)[C@@H]1[C@H]2C[C@H]3c4[nH]c5ccccc5c4CCN3C[C@@H]2CC[C@@H]1O
N[C@H]1C[C@@H](OC(=O)[C@@H]2[C@H]3C[C@H]4c5[nH]c6ccccc6c5CCN4C[C@@H]3CC[C@@H]2O)C1
O=C(O[C@@H]1CCNC1)[C@@H]1[C@H]2C[C@H]3c4[nH]c5ccccc5c4CCN3C[C@@H]2CC[C@@H]1O
O=C(OC[C@H]1CCCN1)[C@@H]1[C@H]2C[C@H]3c4[nH]c5ccccc5c4CCN3C[C@@H]2CC[C@@H]1O
N[C@H]1C[C@H](OC(=O)[C@@H]2[C@H]3C[C@H]4c5[nH]c6ccccc6c5CCN4C[C@@H]3CC[C@@H]2O)C1
O=C(N[C@H]1CCNC1)[C@@H]1[C@H]2C[C@H]3c4[nH]c5ccccc5c4CCN3C[C@@H]2CC[C@@H]1O
O=C(OC[C@H]1CCN1)[C@@H]1[C@H]2C[C@H]3c4[nH]c5ccccc5c4CCN3C[C@@H]2CC[C@@H]1O
O=C(OC1CCNCC1)[C@@H]1[C@H]2C[C@H]3c4[nH]c5ccccc5c4CCN3C[C@@H]2CC[C@@H]1O
O=C(O[C@H]1CCOC1)[C@@H]1[C@H]2C[C@H]3c4[nH]c5ccccc5c4CCN3C[C@@H]2CC[C@@H]1O
O=C(OC[C@H]1CCNC1)[C@@H]1[C@H]2C[C@H]3c4[nH]c5ccccc5c4CCN3C[C@@H]2CC[C@@H]1O
O=C(OC1CNC1)[C@@H]1[C@H]2C[C@H]3c4[nH]c5ccccc5c4CCN3C[C@@H]2CC[C@@H]1O
CN1CC[C@H](OC(=O)[C@@H]2[C@H]3C[C@H]4c5[nH]c6ccccc6c5CCN4C[C@@H]3CC[C@@H]2O)C1
CC(C)OC(=O)[C@@H]1[C@H]2C[C@H]3c4[nH]c5ccccc5c4CCN3C[C@@H]2CC[C@@H]1O
O=C(O[C@H]1CCNC1)[C@@H]1[C@H]2C[C@H]3c4[nH]c5ccccc5c4CCN3C[C@@H]2CC[C@@H]1O
CCOC(=O)[C@@H]1[C@H]2C[C@H]3c4[nH]c5ccccc5c4CCN3C[C@@H]2CC[C@@H]1O
